Results on one compound are retold here after article PMC11676886 (Pharmaceutics, 2024).

On the set-up of data set [1]: method as in doi:10.1016/j.jddst.2024.105605. As to conditions: 4% (w/v) polysorbate 20; cited from earlier work.
The next data set is described as follows: physchem. Format: physicochemical.

In brackets after ≈: the same amount, converted by molar mass.

Protocol for physchem: The mobile phase consisted of 50% acetonitrile and 50% purified water with a flow rate set to 1 mL/min and a column temperature set to 30 °C. The injection volume was 20 µL analyzed at a wavelength set to 230 nm for all analytical measurements.
Samples were prepared by the shake-flask method in glass vials containing 2 mg drug compound and 1 mL dispersion medium consisting of either buffer solutions (50 mM acetate buffer, pH 4.0 or 50 mM citric buffer, pH 3.0) or stabilizer solutions containing 1%, 2%, or 3% polysorbate 20 or vitamin E TPGS dissolved in the buffer solutions. The samples were rotated for 24 h at 40 rpm on a Multi-Rotator (PTR-60, Grant-Bio, Grant Instruments, Cambridgeshire, UK) while stored at 40 °C and protected from light. Samples were prepared in triplicate (n = 3). After equilibration, the samples were filtered with a 0.22 µm hydrophobic polytetrafluoroethylene membrane (VWR International, LLC, Radnor, PA, USA) with sampling tools equilibrated to 40 °C while the clear supernatant was diluted to an appropriate concentration with the mobile phase (50:50 acetonitrile and purified water) and analyzed by the method described above.

`COc1ccc2c(c1)c(CC(=O)O)c(C)n2C(=O)c1ccc(Cl)cc1` [indomethacin]: the solubility result in data set [1] was “approximately 0.70 mg/mL”. Moreover, the solubility at 24 h worked out at 2 µg/mL (≈ 5.59 µM) in the data set “physchem” (40 °C, pH 3, aqueous buffer, thermodynamic from solid); 3 µg/mL (≈ 8.38 µM) in “physchem” (40 °C, pH 4, aqueous buffer, thermodynamic from solid); 640 µg/mL (≈ 1790 µM) in “physchem” (pH 4).
